The results in this text go back to patent US20260108533A1, “COMPOSITIONS AND METHODS FOR THE TREATMENT OF MEIBOMIAN GLAND DYSFUNCTION” (Azura Ophthalmics Ltd., priority 2019, published 2026).

This experiment deals with stratum corneum (SC). Description: Stratum corneum (SC) tape stripping, keratolytic efficacy. Format: in vivo. The following applies: for increase of SC removal: for 3-6 hours. The source says:
Keratolytic efficacy of an agent is optionally assessed by examining stratum corneum (SC) tape strippings to measure the total SC protein amount removed and on the tape. The amount of skin mass on the tape is directly proportional to the amount of keratolysis. Salicylic acid is a keratolytic, while retinoic acid is known mostly for its comedolytic properties, and benzoyl peroxide is known mostly for its anti-microbial mechanism. Here, all three were examined for relative keratolytic efficacy.

On to `CC1=C(/C=C/C(C)=C/C=C/C(C)=C/C(=O)O)C(C)(C)CCC1` [retinoic acid], for which the “increase of SC removal” value is on record as “approximately 35%”.
Regarding `O=C(OOC(=O)c1ccccc1)c1ccccc1` [benzoyl peroxide], the “increase of SC removal” value is reported as “about 10%”. In addition, where the note is “After 3 hours”, the “effectiveness in interfering with SC cohesion” value is reported as “significantly more effective in interfering with SC cohesion than either salicylic acid or retinoic acid”. Further, for the setting “overall comparison”, the “keratolytic effects (tape stripping)” value was “comparable to that of salicylic acid and retinoic acid”.
In the case of `O=C(O)c1ccccc1O` [salicylic acid], the “increase of SC removal” value is “about 10%”.
